This is an account of results in patent US20230165251A1, “SUBSTITUTED TOLYL FUNGICIDES AND THEIR MIXTURES” (FMC Corporation, priority 2020, published 2023).

Each structure is given as a SMILES string. Where two headings read alike, the source gives them in different places.

One series concerns Alternaria solani. The experiment in a line: Test F: preventive spray on tomato seedlings, tomato early blight. The series is classed as in vivo. The source says: (§1) General protocol for preparing test suspensions for Tests A-F: the test compounds were first dissolved in acetone in an amount equal to 3% of the final volume and then suspended at the desired concentration (in ppm) in acetone and purified water (50/50 mix by volume) containing 250 ppm of the surfactant PEG400 (polyhydric alcohol esters). The resulting test suspensions were then used in Tests A-F.
The test suspension was sprayed to the point of run-off on tomato seedlings. The following day the seedlings were inoculated with a spore suspension of Alternaria solani (the causal agent of tomato early blight) and incubated in a saturated atmosphere at 27° C. for 48 h, and then moved to a growth chamber at 20° C. for 3 days, after which time visual disease ratings were made.
(§2) A rating of 100 indicates 100% disease control and a rating of 0 indicates no disease control (relative to the controls). A dash (-) indicates the compound was not tested.

For series [1], the system named is Phakopsora pachyrhizi. The experiment in a line: Test G: Compound 41 or 63 alone and in mixtures on soybean seedlings, Asian soybean rust, Colby synergy. The format is in vivo. Particulars: for pest or weed control at 0.403 ppm: Compound 63 0.403 ppm alone; for pest or weed control at 0.652 ppm: Compound 63 0.652 ppm alone. From the text:
The general protocol for preparing test compositions for TEST G was as follows: Compound 41, Compound 63, N-(2,2,2-trifluoroethyl)-2-[[4-[5-(trifluoromethyl)-1,2,4-oxadiazol-3-yl]phenyl]methyl]-4-oxazolecarboxamide (b54.11a), ethyl 1-[[4-[[(1Z)-2-ethoxy-3,3,3-trifluoro-1-propen-1-yl]oxy]phenyl]methyl]-1H-pyrazole-4-carboxylate (b54.11c), ethyl 1-[[4-[[2-(trifluoromethyl)-1,3-dioxolan-2-yl]methoxy]phenyl]methyl]-1H-pyrazole-4-carboxylate (b54.11d), azoxystrobin, benzovindiflupyr, bixafen, chlorothalonil, cyproconazole, epoxiconazole, fenpropidin, fenpropimorph, fluindapyr, flutriafol, fluxapyroxad, inpyrfluxam, picoxystrobin, prothioconazole, pydiflumetofen, tebuconazole and trifloxystrobin were obtained as unformulated, technical-grade materials. Copper hydroxide and mancozeb was obtained as a formulated product marketed under the trademarks KOCIDE 3000 and MANZATE, respectively. Unformulated materials were first dissolved in acetone and then suspended at the desired concentration (in ppm) in acetone and purified water (50/50 mix by volume) containing 250 ppm of the surfactant Trem® 014 (polyhydric alcohol esters). Formulated materials were dispersed in sufficient water to give the desired concentration, and neither organic solvent nor surfactant was added to the suspension. The resulting test mixtures were then used in TEST G. The tests were run on four individual plants and the results reported as the mean average of the four plants.
The presence of a synergistic effect between two active ingredients was established with the aid of the Colby equation (see Colby, S. R. “Calculating Synergistic and Antagonistic Responses of Herbicide Combinations”, Weeds, (1967), 15, 20-22):
Using the method of Colby, the presence of a synergistic interaction between two active ingredients is established by first calculating the predicted activity, p, of the mixture based on activities of the two components applied alone. If p is lower than the experimentally established effect, synergism has occurred. In the equation above, A is the fungicidal activity in percentage control of one component applied alone at rate x. The B term is the fungicidal activity in percentage control of the second component applied at rate y. The equation estimates p, the expected fungicidal activity of the mixture of A at rate x with B at rate y if their effects are strictly additive and no interaction has occurred.
The test mixture was sprayed to the point of run-off on soybean seedlings. The following day the seedlings were inoculated with a spore suspension of Phakopsora pachyrhizi (the causal agent of Asian soybean rust) and incubated in a saturated atmosphere at 22° C. for 24 h and then moved to a growth chamber at 22° C. for 8 days, after which time visual disease ratings were made.
Results for TEST G are given below in Tables B-1 through J-1 for Compound 41, and Tables B-2 through J-2 for Compound 63. Each table corresponds to a set of evaluations performed together at the same time. In each table, a rating of 100 indicates 100% disease control and a rating of 0 indicates no disease control (relative to the controls). Columns labeled “Obsd” indicate the average of results observed from test run on four individual plants. Columns labeled “Exp” indicate the expected value for each treatment mixture using the Colby equation.

In series [2] the test system is Puccinia recondita f. sp. tritici. The experiment in a line: Test B: preventive spray on wheat seedlings, wheat leaf rust. The series is classed as in vivo. Particulars: Puccinia recondita, 192 h; Rate 10 ppm; read-out: Test B disease control rating.
From the text: as §1
The test solution was sprayed to the point of run-off on wheat seedlings. The following day the seedlings were inoculated with a spore suspension of Puccinia recondita f. sp. tritici (the causal agent of wheat leaf rust) and incubated in a saturated atmosphere at 20° C. for 24 h, and then moved to a growth chamber at 20° C. for 7 days, after which time disease ratings were made.
as §2

The subject of series [3] is Phakopsora pachyrhizi. The experiment in a line: Test D: preventive spray on soybean seedlings, Asian soybean rust. The series is classed as in vivo. Particulars: Phakopsora pachyrhizi, 216 h; Rate 10 ppm; read-out: Test D disease control rating.
From the text: as §1
The test solution was sprayed to the point of run-off on soybean seedlings. The following day the seedlings were inoculated with a spore suspension of Phakopsora pachyrhizi (the causal agent of Asian soybean rust) and incubated in a saturated atmosphere at 22° C. for 24 h and then moved to a growth chamber at 22° C. for 8 days, after which time visual disease ratings were made.
as §2

Setting [4] is: Phakopsora pachyrhizi, Table B-2, read-out: Test G Obsd.
Where [5] appears, read: Phakopsora pachyrhizi, Table C-2, read-out: Test G Obsd.

For the molecule `COC(=O)NCc1cc(-c2ccn(-c3c(F)cc(Cl)cc3F)n2)ccc1C` [Compound 6, methyl N-[[5-[1-(4-chloro-2,6-difluorophenyl)-1H-pyrazol-3-yl]-2-methylphenyl]methyl]carbamate], the “Test F disease control rating” value in the series on Alternaria solani (Rate 10 ppm) is recorded as 40%.
`COC(=O)NCc1cc(-c2ccn(-c3c(F)cc(OC(F)F)cc3F)n2)ccc1C` [Compound 15, methyl N-[[5-[1-[4-(difluoromethoxy)-2,6-difluorophenyl]-1H-pyrazol-3-yl]-2-methylphenyl]methyl]carbamate]: in the series on Alternaria solani (Rate 10 ppm), the “Test F disease control rating” value came out at 0%.
Regarding `COC(=O)NCc1cc(-c2ccn(-c3c(F)cc(C(C)C)cc3F)n2)ccc1C` [Compound 63, methyl N-[[5-[1-[2,6-difluoro-4-(1-methylethyl)phenyl]-1H-pyrazol-3-yl]-2-methylphenyl]methyl]carbamate], the “Test F disease control rating” value with Alternaria solani (Rate 10 ppm) came to 85%. In addition, the pest or weed control at 0.403 ppm in the series on Phakopsora pachyrhizi [1] (setting [4]) came to 34%; in the series with Phakopsora pachyrhizi [1] (setting [5]) it was 15%. In addition, the pest or weed control at 0.652 ppm was 68% with Phakopsora pachyrhizi [1] (setting [4]) and 46% with Phakopsora pachyrhizi [1] (setting [5]).
`COC(=O)NCc1cc(-c2ccn(-c3c(F)cc(C(F)(F)F)cc3F)n2)ccc1C` [Compound 64, methyl N-[[5-[1-[2,6-difluoro-4-(trifluoromethyl)phenyl]-1H-pyrazol-3-yl]-2-methylphenyl]methyl]carbamate]: the “Test F disease control rating” value with Alternaria solani (Rate 10 ppm) was 0%.
As to `COC(=O)NCc1cc(-c2ncn(-c3c(F)cc([N+](=O)[O-])cc3F)n2)ccc1C` [Compound 107], the “Test F disease control rating” value in the series on Alternaria solani (Rate 250 ppm) was 0%.
For the molecule `COC(=O)NCc1cc(-c2cnn(-c3c(F)cc([N+](=O)[O-])cc3F)n2)ccc1C` [Compound 118, methyl N-[[5-[2-(2,6-difluoro-4-nitrophenyl)-2H-1,2,3-triazol-4-yl]-2-methylphenyl]methyl]carbamate], the “Test F disease control rating” value in the series with Alternaria solani (Rate 250 ppm) was determined as 0%.
Take `CO/N=C(\C)c1cc(F)c(-n2ncc(-c3ccc(C)c(CNC(=O)OC)c3)n2)c(F)c1` [Compound 142, methyl (E)-N-[[5-[2-[2,6-difluoro-4-[1-(methoxyimino)ethyl]phenyl]-2H-1,2,3-triazol-4-yl]-2-methylphenyl]methyl]carbamate]: the melting point was 104 to 108 °C. For the same molecule, in series [2], the pest or weed control at 10 ppm came to 86%. Moreover, the pest or weed control at 10 ppm in the series on Phakopsora pachyrhizi [3] came to 100%.
The matching figures for `COC(=O)NNc1cc(-c2ccn(-c3c(F)cc(Cl)cc3F)n2)ccc1C` [Compound 153]: 153 to 156 °C, 68% and 91%.
For `CC1CC(C)(C)c2c(F)ccc(NC(=O)c3cn(C)nc3C(F)F)c21` (centres unmarked) [Fluindapyr, fluindapyr], the “Test G Obsd” value in the series on Phakopsora pachyrhizi [1] (Table C-1, fluindapyr 8.820 ppm alone) turned out to be 61%; with Phakopsora pachyrhizi [1] (Table C-1, fluindapyr 15.230 ppm alone), 79%; in the series with Phakopsora pachyrhizi [1] (Table C-2, fluindapyr 8.820 ppm alone), 61%; with Phakopsora pachyrhizi [1] (Table C-2, fluindapyr 15.230 ppm alone) it was 79%.
With `OC(Cn1cncn1)(c1ccc(F)cc1)c1ccccc1F` (centres unmarked) [Flutriafol, flutriafol], the pest or weed control at 544.265 ppm in the series on Phakopsora pachyrhizi [1] (Phakopsora pachyrhizi, flutriafol alone 544.265 ppm, read-out: Test G Obsd) was determined as 13%. Besides, the pest or weed control at 1124.02 ppm in the series on Phakopsora pachyrhizi [1] (Phakopsora pachyrhizi, flutriafol alone 1124.021 ppm, read-out: Test G Obsd) is 52%.
For the molecule `Cn1cc(C(=O)Nc2ccccc2-c2cc(F)c(F)c(F)c2)c(C(F)F)n1` [Fluxapyroxad, fluxapyroxad], the “Test G Obsd” value was 19% in the series with Phakopsora pachyrhizi [1] (Table C-1, fluxapyroxad 2.757 ppm alone); 52% in the series with Phakopsora pachyrhizi [1] (Table C-1, fluxapyroxad 4.748 ppm alone); 19% with Phakopsora pachyrhizi [1] (Table C-2, fluxapyroxad 2.757 ppm alone); 52% in the series with Phakopsora pachyrhizi [1] (Table C-2, fluxapyroxad 4.748 ppm alone).
For `C[C@@H]1CC(C)(C)c2cccc(NC(=O)c3cn(C)nc3C(F)F)c21` [Inpyrfluxam, inpyrfluxam], the “Test G Obsd” value with Phakopsora pachyrhizi [1] (inpyrfluxam alone 0.448 ppm) amounted to 56%; in the series with Phakopsora pachyrhizi [1] (inpyrfluxam alone 1.059 ppm) it was 79%.
Consider `CO/C=C(/C(=O)OC)c1ccccc1COc1cccc(C(F)(F)F)n1` [Picoxystrobin, picoxystrobin], for which the “Test G Obsd” value in the series on Phakopsora pachyrhizi [1] (picoxystrobin alone 20.596 ppm) turned out to be 63%; with Phakopsora pachyrhizi [1] (picoxystrobin alone 33.856 ppm), 79%; in the series with Phakopsora pachyrhizi [1] (picoxystrobin alone 33.865 ppm) it was 79%.
With `OC(Cc1ccccc1Cl)(Cn1nc[nH]c1=S)C1(Cl)CC1` (centres unmarked) [Prothioconazole, prothioconazole], the pest or weed control at 10.165 ppm in the series with Phakopsora pachyrhizi [1] (Phakopsora pachyrhizi, prothioconazole alone 10.165 ppm, read-out: Test G Obsd) came to 7%. For the same molecule, in the series with Phakopsora pachyrhizi [1] (Phakopsora pachyrhizi, prothioconazole alone 16.339 ppm, read-out: Test G Obsd), the pest or weed control at 16.339 ppm was determined as 65%.
On to `CON(C(=O)c1cn(C)nc1C(F)F)C(C)Cc1c(Cl)cc(Cl)cc1Cl` (centres unmarked) [Pydiflumetofen, pydiflumetofen], for which the “Test G Obsd” value is given as 49% in the series with Phakopsora pachyrhizi [1] (pydiflumetofen alone 41.364 ppm), 0% with Phakopsora pachyrhizi [1] (pydiflumetofen alone 70.950 ppm), 36% in the series with Phakopsora pachyrhizi [1] (pydiflumetofen alone 128.793 ppm) and 73% in the series on Phakopsora pachyrhizi [1] (pydiflumetofen alone 135.850 ppm).
With `CC(C)(C)C(O)(CCc1ccc(Cl)cc1)Cn1cncn1` (centres unmarked) [Tebuconazole, tebuconazole], the pest or weed control at 486.921 ppm in the series with Phakopsora pachyrhizi [1] (Phakopsora pachyrhizi, tebuconazole alone 486.921 ppm, read-out: Test G Obsd) was 30%. Also, the pest or weed control at 841.166 ppm in the series with Phakopsora pachyrhizi [1] (Phakopsora pachyrhizi, tebuconazole alone 841.166 ppm, read-out: Test G Obsd) was determined as 55%.
`CON=C(C(=O)OC)c1ccccc1CON=C(C)c1cccc(C(F)(F)F)c1` [Trifloxystrobin, trifloxystrobin]: the pest or weed control at 20.511 ppm in the series with Phakopsora pachyrhizi [1] (Phakopsora pachyrhizi, trifloxystrobin alone 20.511 ppm, read-out: Test G Obsd) amounted to 46%. In the series with Phakopsora pachyrhizi [1] (Phakopsora pachyrhizi, trifloxystrobin alone 35.310 ppm, read-out: Test G Obsd), the pest or weed control at 35.31 ppm is 76%.
